For the experiment, the target named is T1, citrate synthase (CS) (Homo sapiens, UniProt O75390).
T1 sequence (O75390 28-466): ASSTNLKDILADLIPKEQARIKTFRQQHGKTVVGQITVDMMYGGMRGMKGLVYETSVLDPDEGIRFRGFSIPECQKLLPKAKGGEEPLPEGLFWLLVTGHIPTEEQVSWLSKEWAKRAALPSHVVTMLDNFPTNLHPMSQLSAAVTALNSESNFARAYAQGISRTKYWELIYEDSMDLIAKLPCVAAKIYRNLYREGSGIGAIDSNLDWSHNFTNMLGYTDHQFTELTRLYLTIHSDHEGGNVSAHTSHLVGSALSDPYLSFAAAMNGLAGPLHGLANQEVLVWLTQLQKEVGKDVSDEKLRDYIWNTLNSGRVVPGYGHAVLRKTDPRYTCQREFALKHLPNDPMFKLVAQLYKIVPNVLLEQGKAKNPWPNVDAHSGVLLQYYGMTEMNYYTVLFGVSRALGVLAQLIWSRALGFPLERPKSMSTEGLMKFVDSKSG
Description: DTNB-CoA absorbance at […] nm. The experiment is classed as biochemical.

These results are taken from publication PMC8792425 (Redox Biology, 2022).

In the case of `CC(=O)SCCNC(=O)CCNC(=O)[C@H](O)C(C)(C)COP(=O)(O)OP(=O)(O)OC[C@H]1O[C@@H](n2cnc3c(N)ncnc32)[C@H](O)[C@@H]1OP(=O)(O)O` [acetyl CoA], the “DTNB-CoA absorbance at 412 nm” value (with oxaloacetate and DTNB) is “oxaloacetate, acetyl CoA, and DTNB were incubated with protein lysates”. For `O=C(O)CC(=O)C(=O)O` [oxaloacetate], the “DTNB-CoA absorbance at 412 nm” value (with acetyl CoA and DTNB) is “oxaloacetate, acetyl CoA, and DTNB were incubated with protein lysates”.
